Measured values: patent US8975410B2, “Crystal forms of 5-[3-(2,5-dichloro-4, 6-dimethyl-1-oxy-pyridine-3-yl)[1,2,4] oxadiazol-5-yl]-3-nitrobenzene-1,2-diol” (BIAL—Portela & CA., S.A., priority 2008, dated 2015)

What was measured:
[1] = drying under vacuum at ambient temperature or at 60° C.
[2] = interconversion experiments of the polymorphs; conditions: for stability class of the polymorph: conclusion from interconversion experiments
[3] = about 5% to about 95% relative humidity at 25° C. over a period of 3 months

Compound | polymorph produced on drying [1] | polymorphic conversion in interconversion experiments [2] | stability class of the polymorph [2] | also measured
Cc1c(Cl)c(C)[n+]([O-])c(Cl)c1-c1noc(-c2cc(O)c(O)c([N+](=O)[O-])c2)n1 [polymorph E, 5-[3-(2,5-dichloro-4,6-dimethyl-1-oxy-pyridin-3-yl)-[1,2,4]oxadiazol-5-yl]-3-nitrobenzene-1,2-diol] | produced polymorph A | convert into polymorph A or B | – | –
Cc1c(Cl)c(C)[n+]([O-])c(Cl)c1-c1noc(-c2cc(O)c(O)c([N+](=O)[O-])c2)n1 [polymorph C, 5-[3-(2,5-dichloro-4,6-dimethyl-1-oxy-pyridin-3-yl)-[1,2,4]oxadiazol-5-yl]-3-nitrobenzene-1,2-diol] | produced polymorph B | convert into polymorph A or B | – | –
Cc1c(Cl)c(C)[n+]([O-])c(Cl)c1-c1noc(-c2cc(O)c(O)c([N+](=O)[O-])c2)n1 [polymorph B, 5-[3-(2,5-dichloro-4,6-dimethyl-1-oxy-pyridin-3-yl)-[1,2,4]oxadiazol-5-yl]-3-nitrobenzene-1,2-diol] | – | – | kinetically stable polymorphs | polymorphic conversion when slurried in water ([2]; slurried in water containing crystal seeds of modification A over prolonged periods of time): converts into polymorph A
Cc1c(Cl)c(C)[n+]([O-])c(Cl)c1-c1noc(-c2cc(O)c(O)c([N+](=O)[O-])c2)n1 [polymorph F, 5-[3-(2,5-dichloro-4,6-dimethyl-1-oxy-pyridin-3-yl)-[1,2,4]oxadiazol-5-yl]-3-nitrobenzene-1,2-diol] | – | convert into polymorph A or B | – | –
Cc1c(Cl)c(C)[n+]([O-])c(Cl)c1-c1noc(-c2cc(O)c(O)c([N+](=O)[O-])c2)n1 [polymorph D, 5-[3-(2,5-dichloro-4,6-dimethyl-1-oxy-pyridin-3-yl)-[1,2,4]oxadiazol-5-yl]-3-nitrobenzene-1,2-diol] | – | convert into polymorph A or B | – | –
Cc1c(Cl)c(C)[n+]([O-])c(Cl)c1-c1noc(-c2cc(O)c(O)c([N+](=O)[O-])c2)n1 [polymorph A, 5-[3-(2,5-dichloro-4,6-dimethyl-1-oxy-pyridin-3-yl)-[1,2,4]oxadiazol-5-yl]-3-nitrobenzene-1,2-diol] | – | – | thermodynamically stable polymorph | hygroscopicity [3]: non-hygroscopic
